Experiments:
Assay in all cases: relative viability (nuclei count vs DMSO), 5 days (fraction); higher = more cells survive
SW 1573 = tested on: SW 1573
Procedure, shortened: (§1)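 Dosing by pin tool came one day after lung cancer cell lines were seeded in 1536-well plates, using either one drug or a fixed anchor-drug dose plus five library-drug doses (not always all listed) in √10 steps. After 5 days, nuclei were counted on 4× images. Relative viability is treated-well nuclei count divided by vehicle-well nuclei count, and values are medians of duplicate plates.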

COR-L23 = tested on: COR-L23
Procedure, shortened: as §1

LCLC-97TM1 = tested on: LCLC-97TM1
Procedure, shortened: as §1

NCI-H460 = tested on: NCI-H460
Procedure, shortened: as §1

HCC-15 = tested on: HCC-15
Procedure, shortened: as §1

201T = tested on: 201T
Procedure, shortened: as §1

NCI-H650 = tested on: NCI-H650
Procedure, shortened: as §1

HCC-78 = tested on: HCC-78
Procedure, shortened: as §1

NCI-H441 = tested on: NCI-H441
Procedure, shortened: as §1

EBC-1 = tested on: EBC-1
Procedure, shortened: as §1

LOU-NH91 = tested on: LOU-NH91
Procedure, shortened: as §1

NCI-H2009 = tested on: NCI-H2009
Procedure, shortened: as §1

NCI-H2023 = tested on: NCI-H2023
Procedure, shortened: as §1

LCLC-103H = tested on: LCLC-103H
Procedure, shortened: as §1

NCI-H1734 = tested on: NCI-H1734
Procedure, shortened: as §1

A-427 = tested on: A-427
Procedure, shortened: as §1

NCI-H1993 = tested on: NCI-H1993
Procedure, shortened: as §1

HCC-366 = tested on: HCC-366
Procedure, shortened: as §1

HARA = tested on: HARA
Procedure, shortened: as §1

NCI-H2126 = tested on: NCI-H2126
Procedure, shortened: as §1

RERF-LC-KJ = tested on: RERF-LC-KJ
Procedure, shortened: as §1

HCC-44 = tested on: HCC-44
Procedure, shortened: as §1

Q: With CCCCCCCCCCCC1=C(O)C(=O)C=C(O)C1=O [Embelin] + C[C@]1(O)C[C@@H](c2nc(-c3ccc4ccc(-c5ccccc5)nc4c3)c3c(N)nccn32)C1 [Linsitinib] (partner 1 µM) as the compound, how does the relative viability (SW 1573; first compound 0.08 µM) read?
A: 0.842

Q: And the relative viability (SW 1573; first compound 0.8 µM)?
A: 0.924

Q: What about the relative viability (SW 1573; first compound 2.53 µM) of the same compound?
A: 0.75

Q: What about the relative viability (SW 1573; first compound 8 µM) of the same compound?
A: 0.832

Q: And the relative viability (COR-L23; first compound 0.08 µM)?
A: 0.896

Q: What about the relative viability (COR-L23; first compound 0.8 µM) of the same compound?
A: 1.08

Q: And the relative viability (COR-L23; first compound 2.53 µM)?
A: 0.962

Q: What about the relative viability (COR-L23; first compound 8 µM) of the same compound?
A: 1.05

Q: And the relative viability (LCLC-97TM1; first compound 0.8 µM)?
A: 0.239

Q: And the relative viability (LCLC-97TM1; first compound 2.53 µM)?
A: 0.233

Q: And the relative viability (LCLC-97TM1; first compound 8 µM)?
A: 0.204

Q: And the relative viability (NCI-H460; first compound 0.08 µM)?
A: 0.808

Q: And the relative viability (NCI-H460; first compound 0.8 µM)?
A: 0.988

Q: And the relative viability (NCI-H460; first compound 2.53 µM)?
A: 1.18

Q: And the relative viability (NCI-H460; first compound 8 µM)?
A: 0.69

Q: And the relative viability (HCC-15; first compound 0.08 µM)?
A: 0.922

Q: What about the relative viability (HCC-15; first compound 0.8 µM) of the same compound?
A: 0.895

Q: What about the relative viability (HCC-15; first compound 2.53 µM) of the same compound?
A: 0.996

Q: And the relative viability (HCC-15; first compound 8 µM)?
A: 0.905

Q: What about the relative viability (201T; first compound 0.08 µM) of the same compound?
A: 1.06

Q: What about the relative viability (201T; first compound 0.8 µM) of the same compound?
A: 1.1

Q: And the relative viability (201T; first compound 2.53 µM)?
A: 1.09

Q: And the relative viability (201T; first compound 8 µM)?
A: 1.01

Q: And the relative viability (NCI-H650; first compound 0.08 µM)?
A: 0.812

Q: What about the relative viability (NCI-H650; first compound 0.8 µM) of the same compound?
A: 1.41

Q: And the relative viability (NCI-H650; first compound 2.53 µM)?
A: 0.653

Q: What about the relative viability (NCI-H650; first compound 8 µM) of the same compound?
A: 0.716

Q: What about the relative viability (HCC-78; first compound 0.08 µM) of the same compound?
A: 0.516

Q: What about the relative viability (HCC-78; first compound 0.8 µM) of the same compound?
A: 0.623

Q: And the relative viability (HCC-78; first compound 2.53 µM)?
A: 0.52

Q: And the relative viability (HCC-78; first compound 8 µM)?
A: 0.413

Q: What about the relative viability (NCI-H441; first compound 0.08 µM) of the same compound?
A: 0.598

Q: And the relative viability (NCI-H441; first compound 0.8 µM)?
A: 0.559

Q: What about the relative viability (NCI-H441; first compound 2.53 µM) of the same compound?
A: 0.539

Q: What about the relative viability (NCI-H441; first compound 8 µM) of the same compound?
A: 0.622

Q: And the relative viability (EBC-1; first compound 0.08 µM)?
A: 0.946

Q: What about the relative viability (EBC-1; first compound 0.8 µM) of the same compound?
A: 1.01

Q: And the relative viability (EBC-1; first compound 2.53 µM)?
A: 0.998

Q: What about the relative viability (EBC-1; first compound 8 µM) of the same compound?
A: 0.751

Q: What about the relative viability (LOU-NH91; first compound 0.08 µM) of the same compound?
A: 1.02

Q: And the relative viability (LOU-NH91; first compound 0.8 µM)?
A: 1.23

Q: And the relative viability (LOU-NH91; first compound 2.53 µM)?
A: 1.03

Q: What about the relative viability (LOU-NH91; first compound 8 µM) of the same compound?
A: 0.877

Q: What about the relative viability (NCI-H2009; first compound 0.08 µM) of the same compound?
A: 1.24

Q: What about the relative viability (NCI-H2009; first compound 0.8 µM) of the same compound?
A: 1.3

Q: What about the relative viability (NCI-H2009; first compound 2.53 µM) of the same compound?
A: 1.21

Q: What about the relative viability (NCI-H2009; first compound 8 µM) of the same compound?
A: 1.12

Q: What about the relative viability (NCI-H2023; first compound 0.08 µM) of the same compound?
A: 0.707

Q: What about the relative viability (NCI-H2023; first compound 0.8 µM) of the same compound?
A: 0.66

Q: And the relative viability (NCI-H2023; first compound 2.53 µM)?
A: 0.794

Q: And the relative viability (NCI-H2023; first compound 8 µM)?
A: 0.609

Q: And the relative viability (LCLC-103H; first compound 0.08 µM)?
A: 1.03

Q: What about the relative viability (LCLC-103H; first compound 0.8 µM) of the same compound?
A: 1.11

Q: And the relative viability (LCLC-103H; first compound 2.53 µM)?
A: 1.1

Q: And the relative viability (LCLC-103H; first compound 8 µM)?
A: 1.03

Q: And the relative viability (NCI-H1734; first compound 0.08 µM)?
A: 0.832

Q: And the relative viability (NCI-H1734; first compound 0.8 µM)?
A: 1.05

Q: What about the relative viability (NCI-H1734; first compound 2.53 µM) of the same compound?
A: 0.927

Q: What about the relative viability (NCI-H1734; first compound 8 µM) of the same compound?
A: 0.876

Q: What about the relative viability (A-427; first compound 0.08 µM) of the same compound?
A: 1.11

Q: What about the relative viability (A-427; first compound 0.8 µM) of the same compound?
A: 1.12

Q: And the relative viability (A-427; first compound 2.53 µM)?
A: 1.12

Q: What about the relative viability (A-427; first compound 8 µM) of the same compound?
A: 1.09

Q: What about the relative viability (NCI-H1993; first compound 0.08 µM) of the same compound?
A: 0.734

Q: And the relative viability (NCI-H1993; first compound 0.8 µM)?
A: 0.807

Q: What about the relative viability (NCI-H1993; first compound 2.53 µM) of the same compound?
A: 0.764

Q: What about the relative viability (NCI-H1993; first compound 8 µM) of the same compound?
A: 0.771

Q: And the relative viability (HCC-366; first compound 0.08 µM)?
A: 0.697

Q: And the relative viability (HCC-366; first compound 0.8 µM)?
A: 0.726

Q: What about the relative viability (HCC-366; first compound 2.53 µM) of the same compound?
A: 0.846

Q: And the relative viability (HCC-366; first compound 8 µM)?
A: 0.49

Q: What about the relative viability (HARA; first compound 0.08 µM) of the same compound?
A: 0.972

Q: What about the relative viability (HARA; first compound 0.8 µM) of the same compound?
A: 0.914

Q: What about the relative viability (HARA; first compound 2.53 µM) of the same compound?
A: 0.996

Q: What about the relative viability (HARA; first compound 8 µM) of the same compound?
A: 1.16

Q: What about the relative viability (NCI-H2126; first compound 0.08 µM) of the same compound?
A: 0.714

Q: What about the relative viability (NCI-H2126; first compound 0.8 µM) of the same compound?
A: 0.787

Q: And the relative viability (NCI-H2126; first compound 2.53 µM)?
A: 0.746

Q: What about the relative viability (NCI-H2126; first compound 8 µM) of the same compound?
A: 0.676

Q: And the relative viability (RERF-LC-KJ; first compound 0.08 µM)?
A: 0.905

Q: What about the relative viability (RERF-LC-KJ; first compound 0.8 µM) of the same compound?
A: 0.89

Q: What about the relative viability (RERF-LC-KJ; first compound 2.53 µM) of the same compound?
A: 0.961

Q: And the relative viability (RERF-LC-KJ; first compound 8 µM)?
A: 0.908

Q: What about the relative viability (HCC-44; first compound 0.08 µM) of the same compound?
A: 0.739

Q: And the relative viability (HCC-44; first compound 0.8 µM)?
A: 0.654

Q: What about the relative viability (HCC-44; first compound 2.53 µM) of the same compound?
A: 0.742

Q: What about the relative viability (HCC-44; first compound 8 µM) of the same compound?
A: 0.642

Source: the supplement of paper PMC10307832
